Converted amounts (≈) assume the structure as drawn. Where two headings read alike, the source gives them in different places.
Experiments:
[1] = Aqueous solubility, shake flask in PBS buffer; type: physicochemical; conditions: for solubility at 24 h: PBS buffer, aqueous buffer, thermodynamic from solid
Experimental: 5-50 mg of compound was added to 500 μL of PBS buffer at pH 7.4. The pH was adjusted if necessary, using a 1M NaOH solution. The solutions were vortexed for 10 s, sonicated for 2 min and agitated with a horizontal shaker in a closed vial for 24 h. The mixtures were transferred to an Eppendorf tube and centrifuged for 5 min at 16000×g followed by filtration through […] cellulose acetate spin X centrifuge filter (Costar). 200 μL of filtrate was transferred to a new Eppendorf tube and 200 μL of methanol was added and then subsequent dilution was made in 50:50 methanol/PBS buffer water if necessary. After mixing, 50 μL were transferred into a 384 well plate (Coring UV star, 781801) for UV detection at 250-600 nm (Tecan M1000). The assay was carried out with three independent samples of each compound. The concentration of each solution was determined with a calibration curve in 50:50 methanol/PBS buffer water. Absorbance of corresponding methanol PBS blank were recorded and subtracted from the absorbance of calibration curve solutions and from the samples.

GABAA receptor = GABAA receptor binding, competition assay with [3H]-flunitrazepam and rat brain membranes; conditions: for GABAAR binding, % inhibition at 10 μM: Table 3
Experimental: GABAA receptor binding: Rat brain membranes were prepared from frozen tissue that was thawed on ice and homogenized on ice in 10 volumes of cold lysis buffer (50 mM Tris HCl, pH 7.4, containing protease inhibitor cocktail from Roche) using a Polytron homogenizer (6 pulses and 10 seconds per pulse). The homogenate was centrifuged at 1,000×g for 10 min at 4° C. to obtain the supernatant. The supernatant was then centrifuged at 40,000×g for 20 min, and the resulting supernatant decanted and replaced with the same ice-cold lysis buffer. Two or three additional rounds of homogenization-centrifugation were performed to ensure thorough homogenization and also to wash out endogenous ligands. The final pellet was resuspended in the same buffer and homogenized one last time. […] Total binding and nonspecific binding were determined with reference compound clonazepam. […] Scintillation cocktail is then melted onto the microwave-dried filters on a hot plate and radioactivity counted in a Microbeta counter. The data (n=6) were analyzed by nonlinear regression.

in vitro = conditions: PAMPA, pH 7.4
Experimental: (§1) The artificial membrane was prepared by carefully pipetting 15 μL of the 5% (v/v) hexadecane in hexane solution to each of the wells of the donor plate. The plate was placed into a fume hood for 1 h to ensure complete evaporation of the hexane. After the hexane had evaporated, 300 μL of PBS with 5% (v/v) DMSO was added to each of the wells of the acceptor plate. The hexadecane treated donor plate was then placed on top of the acceptor plate taking care that the underside of the membrane is completely in contact with the solution in each of the acceptor wells. […] The lid was placed on the plates and the entire plate sandwich was placed into a closed humid environment. The container was then placed on a reciprocal shaker for agitation at about 100 rpm. The time at the beginning of the incubation was recorded, as this is a thermodynamic-based assay. The incubation was then allowed to continue for 18 h. The donor plate was removed and 50 μL of the acceptor solution was transferred to the UV plate. Drug solutions at the theoretical equilibrium concentration (100 μM) was also prepared and transferred to the UV plate. The absorbance of the solutions in the UV plate was then scanned from 250-600 nm with 1 nm steps and a 5 nm bandwidth. Log Pe was calculated as follows (Equation 1).

HEK293 cells = test: Cytotoxicity, CellTiter-Glo cell viability assay; type: cell-based, human; conditions: for Cytotoxicity LD50: HEK293 cells, CellTiter-Glo, Table 3
Experimental: Compounds with increased cytotoxicity can be identified using an in vitro cytotoxicity assay. Therefore, human embryonic kidney 293T (HEK293T) cell lines were purchased (ATCC) and cultured in 75 cm2 flasks (CellStar). Cells were grown in DMEM/High Glucose (Hyclone, #SH3024301) media to which non-essential amino acids (Hyclone, #SH30238.01), 10 mM HEPES (Hyclone, #SH302237.01), 5×106 units of penicillin and streptomycin (Hyclone, #SV30010), and 10% of heat inactivated fetal bovine serum (Gibco, #10082147) were added. Cells were harvested using 0.05% Trypsin (Hyclone, #SH3023601). The cell viability assay was evaluated using CellTiter-Glo™ Luminescent Cell Viability Assay Kit (Promega, Madison, WI), which contains luciferase and all its substrate except ATP. The controls for the cytotoxicity assay used were (E)-10-(bromotriphenylphosphoranyl)decyl 4-(4-(tert-butyl)phenyl)-4-oxobut-2-enoate (400 μM in DMSO, positive control) and DMSO (negative control). All luminescence readings were performed on a Tecan Infinite M1000 plate reader. Small volume transfers were performed on the Tecan Freedom EVO liquid handling system with a 100 nL pin tool transfer (V&P Scientific). Serial dilutions were done in 96-well polypropylene plates (Coming, #3365) and assays were conducted in 384-well white optical bottom plates. The assays were carried out in quadruplet in three independent runs. The data were normalized to the controls and if possible analyzed by nonlinear regression (GraphPad Prism).

[2] = parallel artificial membrane permeation assay at pH 7.4
Experimental: as §1

[3] = tested on: C57/BL6 male mice challenged with MC903; test: Mouse atopic dermatitis model, MC903 challenge, twice daily oral dosing; type: in vivo
Text: An established mouse model of atopic dermatitis (AD) was used to evaluate the efficacy of PI-301 ((R)-8-bromo-6-(2-fluorophenyl)-4-methyl-4H-benzo[f]-imidazo[1,5-a][1,4]diazepine-3-carboxylic acid) in reducing ear thickness, scratching frequency, and inflammatory markers following MC903 challenge (for background on the model see: J Invest Dermatol 138, 2606-2616; Proc Natl Acad Sci USA, 103, 11736-11741; Sci Transl Med, 5, 170ra116; J Invest Dermatol, 138, 1555-1563). The increase of ear thickness is based on the increased diameter of stratum, epidermis, and dermis as determined by standard histological analysis. The thickening of the stratum is based on parakeratosis and hyperkeratosis, the thickening of the epidermis is based on acanthosis and spongiosis and the thickening of the dermis is based on inflammatory infiltration. This reflects increased numbers of neutrophils, mast cells, and, to a lesser extent, eosinophils.
C57/BL6 male mice 8 weeks of age were group housed under a 12 h light/dark cycle. For oral dosing, groups of 8 mice were each given twice daily treatment by voluntary feeding of vehicle (peanut butter) or PI-301 (100 mg/kg in vehicle). Animal weights were recorded daily. Three times per week animals were administered MC903 (1 nmol) on both ears topically. Ear thickness was measured with calipers and photographed.

[4] = tested on: C57/BL6 mice challenged with MC903; test: Acute treatment in the MC903 mouse model, scratch count; type: in vivo; conditions: single oral gavage on day 19; recording from 40 min after dose; oclacitinib 45 mg/kg, PI-301 100 mg/kg; p<0.05 vs vehicle
Experimental: In another study, the acute treatment effects of oclacitinib (a JAK inhibitor approved for veterinary use) and PI-301 were studied in the MC903 model using C57/BL6 mice. As described previously, MC903 was applied topically on both sides of both ears (1 nmol). On day 19 of the study (D1), drugs or vehicle were administered to individual treatment groups by oral gavage: oclacitinib (45 mg/kg) or PI-301 (100 mg/kg). Mice were video recorded for 60 minutes beginning 40 minutes after drug administration and scratches counted.

[5] = tested on: IL-6, IL-10, IL-13 and TSLP mRNA in mouse ears; test: RT-PCR of cytokine mRNA in ears of MC903 challenged mice; type: in vivo; conditions: ear mRNA, vs vehicle
Experimental: RT-PCR was used to assay the change in cytokines in MC903 challenged animals treated with PI-301. Left mouse ears stored at −20° C. were thawed, rinsed with water and homogenized in 500 μL RLT buffer (Qiagen, 79216). The liquid was added to a QIAshredder (Qiagen, 79654) and centrifuged at 6000 g for 2 min. 350 μL of the supernatant was combined with 350 μL 70% ethanol and mRNA purified with a RNeasy Mini Kit (Qiagen, 74104). mRNA was analyzed using the Accuris qMAX Green One-Step RT-qPCR Kit (Accuris Instruments) along with primers for IL-4, IL-5, IL-6, IL-10, IL-13, INFγ, and TSLP. Data were acquired using an Eppendorf Mastercycler Pro (45° C. 10 min, 95° C. 2 min, [95° C. 30 s, 55° C. 1 min, 72° C. 2 min]×45) and analyzed by the Delta and Delta-Delta Ct method. Each measurement was carried out in triplicate.

[6] = 10 μM, 3H-flunitrazepam, rat brain extract
[7] = read-out: GABAAR binding (IC50), value in brackets, 3H-flunitrazepam, rat brain extract, Table 3, unit inferred

C#Cc1ccc2c(c1)C(c1ccccc1F)=NC1(CC1)c1c(C(=O)OCC)ncn1-2 [Compound 18]
solubility at 24 h ([1]; pH 7.2, read-out: Aqueous solubility): 0.053 ± 0.003 mM (≈ 21.2 µg/mL)
GABAAR binding, % inhibition at 10 μM (GABAA receptor; [6]): 56%
IC50 (GABAA receptor; [7]): 509 nM
Papp (in vitro): 25.1 ×10⁻⁶ cm/s
Cytotoxicity LD50 (HEK293 cells): >150 µM

CC1(C)N=C(c2ccccc2F)c2cc(Br)ccc2-n2cnc(C(=O)O)c21 [Compound 34, 8-bromo-6-(2-fluorophenyl)-4,4-dimethyl-4H-benzo[f]imidazo[1,5-a][1,4]diazepine-3-carboxylic acid]
solubility at 24 h ([1]; pH 7.2, cells marked b, read-out: Aqueous solubility (footnote b: mM)): 4.4 mM (≈ 1880 µg/mL)
GABAAR binding, % inhibition at 10 μM (GABAA receptor; [6]): 74%
% Inhibition at 10 μM (GABAA receptor; 10 μM, [3H]-flunitrazepam, rat brain, Table 1): 74.4%
IC50 (GABAA receptor; [3H]-flunitrazepam, rat brain, Table 1): 4050 nM
IC50 (GABAA receptor; [7]): 4050 nM
Cytotoxicity LD50 (HEK293 cells): >300 µM
LD50 HEK293 (HEK293 cells; human kidney cells, Table 2): >400 µM
Permeability (log Pe (cm/s)) [2]: −7.0 ± 0.22 cm/s

CCC1N=C(c2ccccc2F)c2cc(Br)ccc2NC1=O (stereo not drawn) [Compound 35, 7-bromo-3-ethyl-5-(2-fluorophenyl)-1,3-dihydro-2H-benzo[e][1,4]diazepin-2-one]
Aqueous solubility ([1]; pH 7.2): 397 ± 31 µM
GABAAR binding, % inhibition at 10 μM (GABAA receptor; [6]): 95%
IC50 (GABAA receptor; [7]): 134 nM
Papp (in vitro): 2 ×10⁻⁶ cm/s
Cytotoxicity LD50 (HEK293 cells): >150 µM

C[C@H]1N=C(c2ccccc2F)c2cc(Br)ccc2-n2cnc(C(=O)O)c21 [PI-301, (R)-8-bromo-6-(2-fluorophenyl)-4-methyl-4H-benzo[f]-imidazo[1,5-a][1,4]diazepine-3-carboxylic acid]
number of scratches ([3]; 100 mg/kg oral twice daily, days 19 and 22, vs vehicle): significantly reduced
increase of ear thickness due to MC903 ([3]; 100 mg/kg oral twice daily, significant on day 10, vs vehicle): reduced the increase of ear thickness
thicknesses of the dermis and epidermis ([3]; histology of H&E stained ear sections, p<0.005 vs vehicle): significant differences
scratches counted over 60 minutes [4]: significant (p<0.05) reduction in scratches
IL-6 induction [5]: reduced induction
IL-10 induction [5]: reduced induction
IL-13 induction [5]: reduced induction
TSLP induction [5]: reduced induction

CNS(=O)(=O)C[C@H]1CC[C@H](N(C)c2ncnc3[nH]ccc23)CC1 [oclacitinib, reference compound]
scratches counted over 60 minutes [4]: significant (p<0.05) reduction in scratches

Source: patent US20260125388A1 (priority 2022, published 2026)
